ChEMBL document CHEMBL5724558, “Image-based profiling of drug vulnerabilities in CRC organoids” (2024)
Where “and” joins values, the source holds several entries; their conditions need not be identical. Equal entries are not always repeated.

Tests used:
Format in all cases: functional, Homo sapiens
Design in all cases: dose or concentration left out as unconfirmed
[1] = system: Colon cancer organoid; test: (§1) Image-based profiling of donated chemical probes and chemogenomic kinase set in O21 CRC organoid. Image analysis is performed on the sum area metric, and the data were normalized to the DMSO control. After imaging the organoid viability is measured using the OneGloEX Luciferase Assay System. The normalized viability data and sum area are reported.
[2] = system: Colon cancer organoid; test: as §1, with “O06” for “O21”
[3] = system: Colon cancer organoid; test: as §1, with “O09” for “O21”

Compound | Cell Viability ([1]; Replication number 1) | Cell Viability ([1]; Replication number 2) | Cell Viability ([2]; Replication number 1) | Cell Viability ([2]; Replication number 2) | Cell Viability ([3]; Replication number 1) | Cell Viability ([3]; Replication number 2)
CCOC(=O)c1c(/C(C#N)=C\N)c2ccc(Cl)c(Cl)c2n1C | 124.932% and 127.137% | 116.619% and 130.014% | 68.8446% and 103.482% | 89.5184% and 120.135% | 79.2888% and 103.726% | 80.6301% and 101.308%
CCOc1cc(N2CCC(O)CC2)ccc1Nc1ncc2c(n1)N(C)c1ccccc1C(=O)N2C | 109.771% and 116.516% | 106.608% and 109.968% | 105.657% and 158.464% | 54.5485% and 108.792% | 50.6693% and 60.5891% | 44.9186% and 56.4198%
CNc1nc(-c2ccc3c(N)n[nH]c3c2)cc(N2C[C@@H](C(=O)NC3CCCCC3)CC[C@H]2C)n1 | 64.6112% and 105.857% | 53.2272% and 96.363% | 59.7664% and 83.0769% | 75.2742% and 90.8217% | 19.6659% and 24.7593% | 39.1039% and 41.4354%
Cc1ccc(NC(=O)Nc2cc(C(F)(F)F)ccc2F)cc1Nc1ccc2c(c1)NC(=O)/C2=C\c1ccc[nH]1 | 103.098% and 128.078% | 94.098% and 129.212% | 171.109% and 157.262% | 144.83% and 120.438% | 128.92% and 93.5433% | 146.444% and 106.907%
OCCn1cc(-c2ccc3c(c2)CCC3=NO)c(-c2ccncc2)n1 | 88.6835% and 115.401% | 96.5689% and 114.574% | 89.1031% and 90.5828% | 141.492% and 108.175% | 111.659% and 102.228% | 89.8993% and 62.6286%
COc1cc2c(NC3CCN(C(C)C)CC3)nc(N3CCC(F)(F)CC3)nc2cc1OCCCN1CCCC1 | 89.3609% and 142.848% | 55.1916% and 97.1957% | 71.9409% and 120.564% | 77.7589% and 98.4599% | 87.3897% and 128.439% | 117.725% and 126.861%
Cc1sc2c(c1C)C(c1ccc(Cl)cc1)=N[C@H](CC(=O)OC(C)(C)C)c1nnc(C)n1-2 | 103.643% and 116.982% | 106.671% and 110.621% | 124.069% and 114.282% | 126.933% and 90.5736% | 84.3348% and 91.1128% | 66.0131% and 88.6601%
COc1ccc(CCc2nc3cc(-c4c(C)noc4C)ccc3n2C[C@H](C)N2CCOCC2)cc1Cl | 102.391% and 140.496% | 95.0347% and 135.859% | 175.76% and 138.685% | 131.173% and 129.766% | 60.3888% and 74.4204% | 92.6649% and 71.2702%
COc1cc(C#N)ccc1S(=O)(=O)Nc1ccc2c(c1)cc(C)c(=O)n2C | 105.091% and 139.321% | 90.295% and 90.2148% | 109.695% and 120.805% | 114.995% and 99.8938% | 120.569% and 113.833% | 161.546% and 95.5021%
Cc1ccc(C(=O)Nc2cccc(C(F)(F)F)c2)cc1Nc1nc(-c2cccnc2)nc2c1cnn2C | 58.179% and 60.2091% | 55.1529% and 56.0201% | 111.788% and 111.949% | 93.5249% and 94.6015% | 119.681% and 88.2655% | 229.025% and 116.079%
O=C(/C=C/N1C[C@H]2C[C@@H]1CN2c1ccccn1)c1ccccc1O | 136.807% and 131.679% | 93.5448% and 99.3437% | 142.277% and 136.268% | 180.564% and 107.78% | 108.639% and 102.241% | 93.5613% and 97.7827%
CC1=C(C(=O)Nc2cc3cn[nH]c3cc2F)C(c2ccc(C(F)(F)F)cc2)CC(=O)N1 (configuration not stated) | 120.369% and 99.2335% | 116.368% and 107.089% | 108.292% and 112.394% | 105.064% and 92.1337% | 137.27% and 97.7404% | 200.569% and 118.509%
CCCS(=O)(=O)c1nc(NC2CC2)cc(-c2ccc3c(ccn3C3CC(C)(C)NC(C)(C)C3)c2)n1 | 108.157% and 124.037% | 90.7114% and 110.084% | 33.8005% and 71.7584% | 41.5782% and 52.8147% | 90.8161% and 100.386% | 72.9195% and 100.634%
CCOc1cn(-c2ccc(F)cc2C)nc1C(=O)Nc1ccc(Oc2ccnc3cc(OC)c(OC)cc23)c(F)c1 | 103.157% and 102.021% and 78.4654% and 79.1638% | 106.966% and 96.7254% and 100.887% and 106.513% | 102.988% and 123.299% and 120.024% and 109.723% | 127.856% and 122.776% and 99.2168% and 90.0771% | 106.171% and 88.0162% and 65.7353% and 75.3% | 96.6425% [middle of 4 runs]
CCC(=O)N1CCOc2c(cc(-c3ccc(OC)c(OC)c3)cc2OCC2CCCN(C)C2)C1 (configuration not stated) | 115.467% and 112.867% | 97.0638% and 103.64% | 144.88% and 142.792% | 105.633% and 74.0839% | 89.2152% and 99.2272% | 160.901% and 114.888%
O=C(NCC(=O)N1CCCC1)Nc1ccc2cnccc2c1 | 118.981% and 107.577% | 82.9956% and 91.8258% | 118.335% and 117.664% | 145.589% and 95.8311% | 77.5338% and 89.49% | 125.69% and 99.4932%
C=CC(=O)Nc1cccc(C(=O)Nc2ccc(Nc3cc(-c4[nH]c(SC)nc4C)ccn3)cc2)c1 | 87.1744% and 91.9861% | 133.203% and 116.877% | 120.545% and 116.4% | 120.557% and 114.139% | 195.827% and 119.682% | 254.944% and 117.159%
Cc1cc2c(cc1N1C(=O)c3cccc4c(CCCO)ccc(c34)C1=O)n(C)c(=O)n2C | 93.3541% and 102.286% | 93.8629% and 86.4558% | 68.0185% and 75.3826% | 71.5666% and 43.0165% | 57.3322% and 75.8114% | 118.076% and 83.8137%
Cn1cc(CCn2cnc(-c3cnn(C)c3)c2-c2ccc(C#N)cc2)cn1 | 99.776% and 95.2319% | 89.4066% and 104.177% | 175.784% and 127.57% | 222.733% and 136.219% | 104.672% and 93.4312% | 96.0156% and 86.9496%
CCCCNNC(=O)c1ccc(Br)cc1 | 97.5198% and 109.34% | 111.608% and 95.0477% | 141.347% and 94.2282% | 136.66% and 100.85% | 73.4793% and 89.7218% | 77.458% and 82.3883%
CCN(CC)S(=O)(=O)Nc1cccc(-c2ccc3c(NC(=O)C4CC4)n[nH]c3c2)c1 | 106.348% and 90.1082% | 91.5896% and 92.3751% | 115.301% and 130.405% | 90.7141% and 75.8621% | 118.731% and 102.205% | 162.059% and 116.31%
CC(C)C(=O)Nc1n[nH]c2cc(-c3cccc(NS(=O)(=O)C4CC4)c3)ccc12 | 108.143% and 100.309% | 99.3973% and 100.309% | 98.7656% and 120.438% | 86.9624% and 76.1389% | 171.396% and 120.765% | 122.795% and 96.2655%
Clc1cc2c(NC3CCCC3)nnc(-c3ccncc3)c2cc1Cl | 113.128% and 118.158% | 77.3442% and 110.621% | 62.2011% and 99.302% | 123.043% and 92.9634% | 139.675% and 109.428% | 148.163% and 121.159%
O=C(NC[C@H](O)CN1CCc2ccccc2C1)c1ccnc(NC2CCC2)c1 | 82.4125% and 78.1842% | 61.8775% and 72.494% | 27.5023% and 69.1007% | 41.1138% and 71.2161% | 64.9401% and 74.8841% | 97.6148% and 75.2613%
CN1C(=O)c2sccc2N(C)c2nc(Nc3ccc(S(N)(=O)=O)cc3)ncc21 | 57.1917% and 77.4913% | 65.5582% and 80.0288% | 15.9976% and 28.488% | 18.284% and 43.3933% | 28.4515% and 23.8118% | 41.5113% and 34.0138%
Cl.Cl.NC1(c2ccc(-c3nc4ccn5c(=O)[nH]nc5c4cc3-c3ccccc3)cc2)CCC1 | 81.7246% and 91.8083% | 79.6922% and 92.9418% | 82.4513% and 94.6892% | 74.7027% and 107.425% | 47.4878% and 37.8628% | 66.6317% and 37.3678%
Cl.O=C([C@@H](Cc1cccc(C(F)(F)F)c1)NS(=O)(=O)c1cc(F)c2c(c1)CCNC2)N1CCCC1 | 76.7615% and 83.4749% | 81.6272% and 85.3819% | 106.357% and 105.584% | 187.159% and 130.005% | 80.2483% and 102.241% | 101.188% and 101.204%
